Laboratory results published in patent publication US20080050759A1, “Screening Assay for Anti-Bacterial Compounds” (Bayer Healthcare AG, priority 2003, published 2008).
Values after ≈ are worked out from the molar mass of the structure shown. Where two headings read alike, the source gives them in different places.

How the values were obtained:
[1] = tested on: S30 extracts from S. pneumoniae 1707/4; assay: Gram-positive in vitro coupled transcription/translation (T/T) assay, S. pneumoniae S30 extract; format: biochemical
Procedure: S. pneumoniae 1707/4 was grown overnight at 37° C. on agar plates containing 5% sheep blood under microaerophilic conditions. Cells were collected and inoculated into 4.8 l of BHI medium containing 5% bovine serum prior to cultivation at 37° C. under microaerophilic conditions for 5 h. S30 extracts were prepared as described for S. aureus 133 with some modifications. Cells were harvested and washed by centrifugation at 20,000×g for 15 min. The resulting cell pellet was resuspended in 20 ml buffer B, 3 mg lysozyme were added, incubated for 40 min at 37° C. prior to the addition of 75 μl 0.5 M DTT. The S30 sediment was washed with 8 ml buffer B and 7 ml preincubation buffer were added to the pooled supernatants.
(§1) The final assay volume was 59 μl. Inhibitor (3 μl dissolved in 10% DMSO), plasmid DNA (10 μl of optimal concentration in water pH 8.0) and 46 μl S30 extract [optimal concentration in 23 μl premixed with 23 μl incubation buffer (0.5 M potassium acetate, 87.5 mM Tris/acetate pH 8.0, 67.5 mM ammonium acetate, 50 μg/ml folinic acid, 5 mM DTT, 87.5 mg/ml polyethylene glycol 8000, 5 mM ATP; 1.25 mM of each CTP, GTP and UTP; 0.02 mM amino acids, 50 mM phosphoenolpyruvate trisodium salt, 2.5 mM cyclic AMP, 250 μg of each E. coli tRNA/ml) were added and incubated at 30° C. for 1 h. When using pT7-FF as a template 0.05 μl or 0.1 μl (50 U/μl) T7-RNA-Polymerase (Gibco BRL) were added to the S30 extracts used in the assay. Newly synthesized luciferase was detected by measuring bioluminescence for 60 s in a luininometer after the addition of 50 μl substrate buffer containing luciferine (20 mM Tricine/Cl pH 7.8, 2.67 mM MgSO4, 0.1 mM EDTA, 33.3 mM DTT, 0.27 mM Coenzyme A, 0.47 mM luciferine, 0.53 mM ATP).
(§2) The shape of the inhibition profiles is more or less similar for these compounds, in case of Streptomycin the lower IC50 value for S. aureus 133 compared to E. faecalis 27263 can be seen. templates pXyl-FF and pT7-FF with S30 extracts of the indicated bacterial strains. […] MIC (minimal inhibitory concentration) values were determined as described in Example 4. Numbers in square brackets relate to the unit in square brackets as given in the column heading.

[2] = tested on: S30 extracts from E. faecalis 27263; assay: Gram-positive in vitro coupled transcription/translation (T/T) assay, E. faecalis S30 extract; format: biochemical
Procedure: E. faecalis 26273 was grown overnight in 250 ml BHI medium containing 2% bovine serum at 37° C. under microaerophilic conditions. The overnight culture was used to inoculate 4.8 1 BHI medium, cells were incubated at 37° C. under microaerophilic conditions with agitation (170 rpm) until an OD600 nm of ˜1.6 was reached. Preparation of S30 extracts was done as described for S. aureus with the following exceptions. Cells were harvested and washed at 7000×g at 4° C. for 12 min and resuspended in 100 ml S30-buffer B. For cell lysis 15 mg lysozyme resuspended in 1 ml S30-buffer B were added and incubated for 2 h at 37° C. with agitation. To complete cell lysis extracts were passed once through a French Press at 600 psi.
as §1, §2

[3] = tested on: S30 extracts derived from all three Gram-positives; assay: In vitro coupled T/T assay, for all three Gram-positive S30 extracts; format: biochemical, S. aureus, S. pneumoniae, E. faecalis; settings: at high concentrations
Procedure: To validate the in vitro coupled T/T assay for screening of potential inhibitors of transcription and translation several antibiotics of known mode of action were tested.

S. pneumoniae 1707/4 = assay: Minimum inhibitory concentration, micro broth dilution; format: cell-based
Procedure: (§3) MIC determinations were performed using the micro broth dilution method with an inoculum of 5×10^5 cfu/ml in BHI medium. Growth was read after 24 h of incubation at 37° C. Test compounds were dissolved in dimethyl sulfoxide and diluted to a concentration not higher than 2.5% dimethyl sulfoxide. For S. pneumoniae 1707/4 and E. faecalis 27263 16% bovine serum were added and incubated under microaerophilic conditions.

S. aureus 133 = assay: as above; format: cell-based
Procedure: as §3

E. faecalis 27263 = assay: as above; format: cell-based
Procedure: as §3

[4] = tested on: S30 extracts from S. aureus 133; assay: Gram-positive in vitro coupled transcription/translation (T/T) assay, S. aureus S30 extract; format: biochemical
Procedure: A procedure similar to the preparation of S30 extracts described by Murray et. al. (2) was used for S. aureus. Brain heart infusion (BHI) medium (6 l) was inoculated with 250 ml overnight culture of S. aureus 133 grown in BHI at 37° C. with agitation (170 rpm). Cells were cultured at 37° C. until an OD595nm of 2.5 was reached prior to centrifugation at 6000×g for 15 min at 4° C. Pellets were washed once with 500 ml cold S30-buffer A (10 mM Tris-acetate pH 8.0, 14 mM Mg-acetate, 1 mM DTT, 1 M KCl) and once with 250 ml of cold S30-buffer A containing 50 mM KCl. Pellets were frozen for 1 h at −20° C. or overnight at −70° C., thawed on ice and resuspended to a final volume of 99 ml buffer B (10 mM Tris-acetate pH 8.0, 20 mM Mg-acetate, 1 mM DTT, 50 mM KCl). A 1.5 ml aliquote of lysostaphin (0.8 mg/ml) in buffer B was added to each of three centrifuge tubes and 33 ml of the cell suspension were added. Samples were incubated at 37° C. for 1 h with gentle agitation prior to the addition of 150 μl 0.5 M DTT. Lysed cells were centrifuged for 30 min at 30,000×g at 4° C. and the resulting pellet was washed once with 33 ml S30-buffer B. The pooled supernatants were recentrifuged at 30,000×g for 30 min at 4° C. 100 ml of the supernatant were incubated with 25 ml preincubation buffer (670 mM Tris-acetate pH 8.0, 20 mM Mg-acetate, 7 mM Na3-PEP, 7 mM DTT, 5.5 mM ATP, 70 μM amino acids complete [Promega], 75 μg pyruvate kinase [Sigma]/ml) for 30 min at 37° C. to translate mRNAs. The preincubated supernatants were dialysed at 4° C. against 2 l of 10 mM Tris-acetate pH 8.0, 14 mM Mg-acetate, 1 mM DTT, 60 mM KCl with one buffer change using a Spectra-Por dialysis bag with a molecular weight cutoff of 3,500. The dialysate was gently concentrated by covering the dialysis bag with polyethylene glycol 8,000 powder (Sigma) at 4° C. to a protein concentration of ˜10 mg/ml. The resulting S30 extracts were flash frozen and stored in aliquots at −70° C.
as §1
MIC (minimal inhibitory concentration) values were determined as described in Example 4. Numbers in square brackets relate to the unit in square brackets as given in the column heading.

[5] = template pT7-FF with T7 RNA polymerase, read-out: IC50
[6] = template pT7-FF, value in square brackets
[7] = template pXyl-FF, read-out: IC50
[8] = template pXyl-FF, value in square brackets
[9] = Streptococcus pneumoniae, 1707/4, BHI medium, 16% bovine serum, microaerophilic, 24 h, 37° C., read-out: MIC
[10] = Staphylococcus aureus, 133, BHI medium, 24 h, 37° C., read-out: MIC
[11] = Enterococcus faecalis, 27263, BHI medium, 16% bovine serum, microaerophilic, 24 h, 37° C., read-out: MIC
[12] = template pXyl-FF, 50% inhibition of in vitro translation of luciferase, read-out: IC50
[13] = Streptococcus pneumoniae, 1707/4, 24 h
[14] = Enterococcus faecalis, 27263, 24 h
[15] = BHI medium, 16% bovine serum, microaerophilic, 24 h, 37° C.

| Structure (SMILES) | IC50 [1, 5] [µM] | IC50 [1, 6] [µg/mL] | IC50 [2, 5] [µM] | IC50 [2, 6] [µg/mL] | IC50 [2, 7] [µM] | IC50 [2, 8] [µg/mL] | inhibition in the in vitro coupled T/T assay [3] | MIC (S. pneumoniae 1707/4; [9]) [µg/mL] | MIC (S. aureus 133; [10]) [µg/mL] | MIC (E. faecalis 27263; [11]) [µg/mL] | IC50 [4, 5] [µM] | IC50 [4, 6] [µg/mL] | IC50 [4, 12] [µM] | IC50 [4, 8] [µg/mL] | MIC (S. pneumoniae 1707/4; [13]) [µg/mL] | MIC (E. faecalis 27263; [14]) [µg/mL] | MIC (S. pneumoniae 1707/4; [15]) [µg/mL] | MIC (S. aureus 133; BHI medium, 24 h, 37° C.) [µg/mL] | MIC (E. faecalis 27263; [15]) [µg/mL] | MIC (S. aureus 133; Staphylococcus aureus, 133, 24 h) [µg/mL] |
| --- | --- | --- | --- | --- | --- | --- | --- | --- | --- | --- | --- | --- | --- | --- | --- | --- | --- | --- | --- | --- |
| CC1(C)S[C@@H]2[C@H](NC(=O)[C@H](N)c3ccccc3)C(=O)N2[C@H]1C(=O)O [Ampicillin] | > 285 | > 100 | > 142 | > 50 | > 142 | > 50 | no or only weak inhibition | 0.12 (≈ 0.343 µM) | 0.4 (≈ 1.14 µM) | 3.1 (≈ 8.87 µM) | > 142 | > 50 | > 285 | > 100 | – | – | – | – | – | – |
| O=C(N[C@H](CO)[C@H](O)c1ccc([N+](=O)[O-])cc1)C(Cl)Cl [Chloramphenicol] | 11.8 | 3.8 | 16.7 | 5.4 | 14.9 | 4.8 | – | 4 (≈ 12.4 µM) | 4 (≈ 12.4 µM) | > 16 | 7.4 | 2.4 | 9.3 | 3.0 | – | – | – | – | – | – |
| CC[C@H]1OC(=O)[C@H](C)[C@@H](O[C@H]2C[C@@](C)(OC)[C@@H](O)[C@H](C)O2)[C@H](C)[C@@H](O[C@@H]2O[C@H](C)C[C@H](N(C)C)[C@H]2O)[C@](C)(O)C[C@@H](C)C(=O)[C@H](C)[C@@H](O)[C@]1(C)O [Erythromycin] | 0.05 | 0.04 | 0.4 | 0.3 | 0.2 | 0.15 | – | 0.1 (≈ 0.136 µM) | 0.1 (≈ 0.136 µM) | > 100 | 0.2 | 0.15 | 0.2 | 0.15 | – | – | – | – | – | – |
| CC(=O)NC[C@H]1CN(c2ccc(N3CCOCC3)c(F)c2)C(=O)O1 [Linezolid] | 5.8 | 1.7 | 3.4 | 1.0 | 3.1 | 0.9 | – | 1 (≈ 2.96 µM) | 2 (≈ 5.93 µM) | 2 (≈ 5.93 µM) | 4.1 | 1.2 | 4.1 | 1.2 | – | – | – | – | – | – |
| COc1c(N2C[C@@H]3CCCN[C@@H]3C2)c(F)cc2c(=O)c(C(=O)O)cn(C3CC3)c12 [Moxifloxacin] | – | – | – | – | – | – | – | – | 0.06 (≈ 0.149 µM) | – | – | – | – | – | 0.25 (≈ 0.623 µM) | 0.5 (≈ 1.25 µM) | – | – | – | – |
| CO[C@H]1/C=C/O[C@@]2(C)Oc3c(C)c(O)c4c(O)c(c(/C=N/N5CCN(C)CC5)c(O)c4c3C2=O)NC(=O)/C(C)=C\C=C\[C@H](C)[C@H](O)[C@@H](C)[C@@H](O)[C@@H](C)[C@H](OC(C)=O)[C@@H]1C [Rifampicin] | – | – | – | – | – | – | – | < 0.05 | < 0.05 | 3.1 (≈ 3.77 µM) | – | – | – | – | – | – | – | – | – | – |
| [H]/N=C(/N)N[C@H]1[C@H](O)[C@@H](O)[C@H](O[C@@H]2O[C@@H](C)[C@](O)(C=O)[C@H]2O[C@@H]2O[C@@H](CO)[C@H](O)[C@@H](O)[C@@H]2NC)[C@@H](N/C(N)=N\[H])[C@@H]1O [Streptomycin] | 0.01 | 0.02 | 0.41 | 0.6 | 0.48 | 0.7 | – | > 100 | 6.25 (≈ 10.7 µM) | > 100 | 0.02 | 0.03 | 0.05 | 0.07 | – | – | – | – | – | – |
| CN(C)[C@@H]1C(=O)C(C(N)=O)=C(O)[C@@]2(O)C(=O)C3=C(O)c4c(O)cccc4[C@@](C)(O)[C@H]3C[C@@H]12 [Tetracyclin] | 0.45 | 0.2 | 2.3 | 1.0 | 1.8 | 0.8 | – | – | – | – | 0.6 | 0.25 | 0.9 | 0.4 | – | – | 0.2 (≈ 0.45 µM) | 0.05 (≈ 0.113 µM) | >100 | – |
| CN[C@H](CC(C)C)C(=O)N[C@H]1C(=O)N[C@@H](CC(N)=O)C(=O)N[C@H]2C(=O)N[C@H]3C(=O)N[C@H](C(=O)N[C@H](C(=O)O)c4cc(O)cc(O)c4-c4cc3ccc4O)[C@H](O)c3ccc(c(Cl)c3)Oc3cc2cc(c3O[C@@H]2O[C@H](CO)[C@@H](O)[C@H](O)[C@H]2O[C@H]2C[C@](C)(N)[C@H](O)[C@H](C)O2)Oc2ccc(cc2Cl)[C@H]1O [Vancomycin] | > 34 | > 50 | > 34 | > 50 | > 34 | > 50 | no or only weak inhibition | – | – | – | > 34 | > 50 | > 67 | > 100 | 0.25 (≈ 0.173 µM) | 2 (≈ 1.38 µM) | – | – | – | 0.25 (≈ 0.173 µM) |
